The results in this text go back to patent US20260265195A1, “SARM1 MODULATORS, PREPARATIONS, AND USES THEREOF” (SIRONAX LTD, priority 2022, published 2026).

One may read the IC50 as the concentration at which inhibition is half-maximal.

The experiment concerns the target T1, SARM1 (50-724) (Homo sapiens, UniProt Q6SZW1).
T1 construct: Purified SARM1 (50-724) with a final concentration of 2 nM
T1 sequence (Q6SZW1 50-724): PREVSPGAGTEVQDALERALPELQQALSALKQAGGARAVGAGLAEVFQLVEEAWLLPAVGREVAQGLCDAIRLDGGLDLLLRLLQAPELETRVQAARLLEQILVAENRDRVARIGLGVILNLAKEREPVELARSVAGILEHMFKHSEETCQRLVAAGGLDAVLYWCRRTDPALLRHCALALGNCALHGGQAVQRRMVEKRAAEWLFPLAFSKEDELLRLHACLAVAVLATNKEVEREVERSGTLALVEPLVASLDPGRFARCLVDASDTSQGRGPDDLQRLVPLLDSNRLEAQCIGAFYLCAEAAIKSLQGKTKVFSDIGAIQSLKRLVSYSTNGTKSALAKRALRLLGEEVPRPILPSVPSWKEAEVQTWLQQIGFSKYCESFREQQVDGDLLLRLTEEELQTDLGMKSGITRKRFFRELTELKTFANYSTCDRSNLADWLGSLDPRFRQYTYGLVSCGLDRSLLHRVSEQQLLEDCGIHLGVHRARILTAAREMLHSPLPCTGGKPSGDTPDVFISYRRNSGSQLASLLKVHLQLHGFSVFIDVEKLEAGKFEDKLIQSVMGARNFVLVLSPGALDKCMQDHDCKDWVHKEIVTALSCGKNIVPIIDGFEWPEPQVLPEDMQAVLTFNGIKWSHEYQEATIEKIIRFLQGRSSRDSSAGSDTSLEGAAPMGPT
The experiment can be described thus: SARM1 (50-724) enzymatic assay (NMN-activated NAD+ hydrolysis, LC-MS/MS readout). The following applies: purified SARM1 (50-724) 2 nM, 200 μM NMN activator, 100 μM NAD+ substrate, 1 h at room temperature, read-out: IC50 (SARM1 inhibitory activity). It is filed as biochemical. Summed up:
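Purified human SARM1 (50-724), 2 nM final in DPBS, pre-incubated 15 min at RT with compound (1% DMSO), then started with 200 μM NMN activator and 100 μM NAD+. After 1 h at RT, quenched with 70% acetonitrile; analysed by LC-MS/MS.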
In the case of `CS(=N)(=O)CCCN(C(=O)c1nc2cc(C(F)(F)F)ccc2[nH]1)c1cccc(F)c1Cl` (stereo not shown) [Compound 224, N-(2-chloro-3-fluorophenyl)-N-(3-(S-methylsulfonimidoyl)propyl)-5-(trifluoromethyl)-1H-benzo[d]imidazole-2-carboxamide], the 50% inhibitory concentration (IC50) is at most 100 nM.

For `CN=S(C)(=O)CCCN(C(=O)c1nc2cc(C(F)(F)F)ccc2[nH]1)c1cccc(F)c1Cl` (stereo not shown) [Compound 225, N-(2-chloro-3-fluorophenyl)-N-(3-(N,S-dimethylsulfonimidoyl)propyl)-5-(trifluoromethyl)-1H-benzo[d]imidazole-2-carboxamide], the IC50 was at most 100 nM.

Take `CS(=O)(=O)CCCN(C(=O)c1nc2cc(C(F)(F)F)ccc2[nH]1)c1cccc(F)c1Br` [Compound 227, N-(2-bromo-3-fluorophenyl)-N-(3-(methylsulfonyl)propyl)-5-(trifluoromethyl)-1H-benzo[d]imidazole-2-carboxamide]: the 50% inhibitory concentration (IC50) is at most 100 nM.

As to `CS(=O)(=O)CCN(C(=O)c1nc2cc(C(F)(F)F)ccc2[nH]1)c1cccc(F)c1Cl` [Compound 229, N-(2-chloro-3-fluorophenyl)-N-(2-(methylsulfonyl)ethyl)-5-(trifluoromethyl)-1H-benzo[d]imidazole-2-carboxamide], the IC50 is at most 100 nM.

With `NC(=O)C(F)(F)CN(C(=O)c1nc2cc(Cl)cc(F)c2[nH]1)c1ccc(F)c(F)c1Cl` [Compound 231], the IC50 is at most 100 nM.

On to `O=C(c1nc2cc(Cl)cc(F)c2[nH]1)N(CC(F)(F)CO)c1cccc(F)c1Cl` [Compound 232, 5-chloro-N-(2-chloro-3-fluorophenyl)-N-(2,2-difluoro-3-hydroxypropyl)-7-fluoro-1H-benzo[d]imidazole-2-carboxamide], for which the IC50 is at most 100 nM.

On to `O=C(c1nc2cc(Cl)cc(F)c2[nH]1)N(CC(F)(F)CO)c1ccc(F)c(F)c1Cl` [Compound 233], for which the IC50 is at most 100 nM.

As for `NC(=O)C(F)(F)CN(C(=O)c1nc2cc(Cl)cc(F)c2[nH]1)c1cccc(F)c1Cl` [Compound 234], the IC50 was at most 100 nM.

Take `O=C(c1nc2cc(Cl)cc(Cl)c2[nH]1)N(CC(F)(F)CO)c1cccc(F)c1Cl` [Compound 235]: the IC50 was in the range of 101 to 500 nM.

In the case of `O=C(c1nc2c(F)c(Cl)ccc2[nH]1)N(CC(F)(F)CO)c1cccc(F)c1Cl` [Compound 236], the IC50 is at most 100 nM.

For `CN(C(=O)c1nc2cc(C(F)(F)F)ccc2[nH]1)c1ccncc1OC(F)(F)F` [Compound 237, N-methyl-N-(3-(trifluoromethoxy)pyridin-4-yl)-5-(trifluoromethyl)-1H-benzo[d]imidazole-2-carboxamide], the IC50 lay in the range of 501 to 1000 nM.

As for `CC1(O)CC(N(C(=O)c2nc3cc(C(F)(F)F)ccc3[nH]2)c2cccc(F)c2Cl)C1` (stereo not shown) [Compound 239, N-(2-chloro-3-fluorophenyl)-N-(3-hydroxy-3-methylcyclobutyl)-5-(trifluoromethyl)-1H-benzo[d]imidazole-2-carboxamide], the half-maximal inhibitory concentration (IC50) lay in the range of 101 to 500 nM.

As for `Cc1c(F)cncc1N(CCO)C(=O)c1nc2cc(C(F)(F)F)ccc2[nH]1` [compound 169], the IC50 was 101 to 500 nM.
